Among the data in patent US8835409B2, “3-alkenyl-6-halo-4-aminopicolinates and their use as herbicides” (Dow AgroSciences, LLC., priority 2011, dated 2014) are pest or weed control, plant injury and melting point values, retold here.

The subject of series [1] is Amaranthus retroflexus (pigweed). Kind of series: Postemergence herbicidal activity, visual % control. The series is classed as in vivo. As to conditions: post-emergence, 336 h, post-emergent, after 14 days, 0 = no injury, 100 = complete kill, read-out: % Control AMARE; for pest or weed control at 280 g/ha: 280 g ai/ha; for pest or weed control at 140 g/ha: 140 g ai/ha. The method, then:
(§1) Seeds or nutlets of the desired test plant species were planted in Sun Gro MetroMix® 306 planting mixture, which typically has a pH of 6.0 to 6.8 and an organic matter content of about 30 percent, in plastic pots with a surface area of 64 square centimeters. When required to ensure good germination and healthy plants, a fungicide treatment and/or other chemical or physical treatment was applied. The plants were grown for 7-21 days in a greenhouse with an approximate 15 hour photoperiod which was maintained at about 23-29° C. during the day and 22-28° C. during the night. Nutrients and water were added on a regular basis and supplemental lighting was provided with overhead metal halide 1000-Watt lamps as necessary. The plants were employed for testing when they reached the first or second true leaf stage.
(§2) A weighed amount, determined by the highest rate to be tested, of each test compound was placed in a 25 mL glass vial and was dissolved in 4 mL of a 97:3 v/v (volume/volume) mixture of acetone and dimethyl sulfoxide (DMSO) to obtain concentrated stock solutions. […] The concentrated stock solutions obtained were diluted with 20 mL of an aqueous mixture containing acetone, water, isopropyl alcohol, DMSO, Atplus 411F crop oil concentrate, and Triton® X-155 surfactant in a 48.5:39:10:1.5:1.0:0.02 v/v ratio to obtain spray solutions containing the highest application rates. Additional application rates were obtained by serial dilution of 12 mL of the high rate solution into a solution containing 2 mL of 97:3 (v/v) mixture of acetone and dimethyl sulfoxide (DMSO) and 10 mL of an aqueous mixture containing acetone, water, isopropyl alcohol, DMSO, Atplus 411F crop oil concentrate, and Triton X-155 surfactant in a 48.5:39:10:1.5:1.0:0.02 (v/v) ratio to obtain ½X, ¼X, ⅛X and 1/16X rates of the high rate. Compound requirements are based upon a 12 mL application volume at a rate of 187 L/ha. Formulated compounds were applied to the plant material with an overhead Mandel track sprayer equipped with a 8002E nozzles calibrated to deliver 187 L/ha over an application area of 0.503 square meters at a spray height of […] above the average plant canopy height. Control plants were sprayed in the same manner with the solvent blank.
(§3) The treated plants and control plants were placed in a greenhouse as described above and watered by sub-irrigation to prevent wash-off of the test compounds. After 14 days, the condition of the test plants as compared with that of the untreated plants was determined visually and scored on a scale of 0 to 100 percent where 0 corresponds to no injury and 100 corresponds to complete kill

Series [2] deals with Chenopodium album (lambsquarters). The series is described as above. The series is classed as in vivo. As to conditions: post-emergence, 336 h, post-emergent, after 14 days, 0 = no injury, 100 = complete kill, read-out: % Control CHEAL; for pest or weed control at 280 g/ha: 280 g ai/ha; for pest or weed control at 140 g/ha: 140 g ai/ha. As to the method: as §1, §2, §3
Series [3] relates to Polygonum convolvulus (wild buckwheat). The description is as above. Format: in vivo. As to conditions: Fallopia convolvulus, post-emergence, 336 h, post-emergent, after 14 days, 0 = no injury, 100 = complete kill, read-out: % Control POLCO; for pest or weed control at 280 g/ha: 280 g ai/ha; for pest or weed control at 140 g/ha: 140 g ai/ha. The method, then: as §1, §2, §3
Series [4] relates to Cirsium arvense (canada thistle). The series is described as above. Format: in vivo. The following applies: post-emergence, 336 h, post-emergent, after 14 days, 0 = no injury, 100 = complete kill, read-out: % Control CIRAR; for pest or weed control at 280 g/ha: 280 g ai/ha; for pest or weed control at 140 g/ha: 140 g ai/ha. The method, then:
as §1, §2, §3

The subject of series [5] is Triticum aestivum (spring wheat). The series is described as above. Format: in vivo. The following applies: post-emergence, 336 h, post-emergent, after 14 days, 0 = no injury, 100 = complete kill, read-out: % Control TRZAS; for plant injury at 280 g/ha: 280 g ai/ha; for plant injury at 140 g/ha: 140 g ai/ha. As to the method: as §1, §2, §3

In turn, `C=Cc1c(C(=O)OC)nc(Cl)c(Cl)c1N` [Compound 1, methyl 4-amino-5,6-dichloro-3-vinylpicolinate] returned a melting point of 96 to 97 °C. The pest or weed control at 280 g/ha in series [1] was 100%. Besides, the pest or weed control at 280 g/ha in series [2] worked out at 100%. In addition, the pest or weed control at 280 g/ha in series [3] stood at 100%. Moreover, the pest or weed control at 280 g/ha in series [4] was 95%. The plant injury at 280 g/ha in series [5] was found to be 0%.
Consider `COC(=O)c1nc(Cl)c(F)c(N)c1/C=C/Cl` [Compound 8, (E)-methyl 4-amino-6-chloro-3-(2-chlorovinyl)-5-fluoropicolinate], for which the melting point was 128 to 130 °C. For the same compound, the pest or weed control at 140 g/ha in series [1] turned out to be 90%. Moreover, in series [2], the pest or weed control at 140 g/ha came to 90%. Also, the pest or weed control at 140 g/ha in series [3] came to 60%. In series [4], the pest or weed control at 140 g/ha was 70%. In series [5], the plant injury at 140 g/ha came out at 0%.
As to `C=Cc1c(N)cc(Cl)nc1C(=O)O` [Compound 11, 4-amino-6-chloro-3-vinylpicolinic acid], the melting point fell in the range of 146 to 148 °C. In series [2], the pest or weed control at 280 g/ha came to 100%. The pest or weed control at 280 g/ha in series [4] came to 10%. Moreover, the plant injury at 280 g/ha in series [5] came to 50%.
`C/C=C/c1c(C(=O)O)nc(Cl)c(F)c1N` [Compound 13, (E)-4-amino-6-chloro-5-fluoro-3-(prop-1-en-l-yl)picolinic acid] displayed a melting point of 153 to 155 °C. The pest or weed control at 140 g/ha in series [1] was determined as 60%. In addition, in series [2], the pest or weed control at 140 g/ha was 85%. Moreover, the pest or weed control at 140 g/ha in series [3] was 60%. For the same compound, the pest or weed control at 140 g/ha in series [4] was determined as 70%. Also, the plant injury at 140 g/ha in series [5] was determined as 30%.
For `Nc1c(F)c(Cl)nc(C(=O)O)c1/C=C/Cl` [Compound 16, (E)-4-amino-6-chloro-3-(2-chlorovinyl)-5-fluoropicolinic acid], the melting point lay within 152 to 157 °C. Also, the pest or weed control at 140 g/ha in series [1] is 90%. Besides, in series [2], the pest or weed control at 140 g/ha was found to be 100%. In series [3], the pest or weed control at 140 g/ha was 10%. Also, the pest or weed control at 140 g/ha in series [4] was 75%. Also, the plant injury at 140 g/ha in series [5] was 80%.
On to `C=Cc1c(N)cc(Cl)nc1C(=O)OC` [Compound 3, methyl 4-amino-6-chloro-3-vinylpicolinate], for which the melting point lay in the range of 53 to 54 °C. In addition, the pest or weed control at 280 g/ha in series [1] was 100%. For the same compound, the pest or weed control at 280 g/ha in series [2] amounted to 100%. For the same compound, in series [3], the pest or weed control at 280 g/ha is 100%. Also, the pest or weed control at 280 g/ha in series [4] was found to be 100%. Moreover, the plant injury at 280 g/ha in series [5] was 20%.
The compound `C/C=C\c1c(C(=O)O)nc(Cl)c(F)c1N` [Compound 12, (Z)-4-amino-6-chloro-5-fluoro-3-(prop-1-en-l-yl)picolinic acid] came in with a melting point of 141 to 143 °C. In addition, in series [1], the pest or weed control at 140 g/ha amounted to 100%. Besides, the pest or weed control at 140 g/ha in series [2] worked out at 100%. Besides, in series [3], the pest or weed control at 140 g/ha was found to be 85%. Also, the pest or weed control at 140 g/ha in series [4] was determined as 80%. For the same compound, the plant injury at 140 g/ha in series [5] came to 10%.
`C=Cc1c(C(=O)OC)nc(Cl)c(F)c1N` [Compound 2, methyl 4-amino-6-chloro-5-fluoro-3-vinylpyridine-2-carboxylate] displayed a melting point of 99 to 100 °C. In series [1], the pest or weed control at 140 g/ha is 100%. Also, the pest or weed control at 140 g/ha in series [2] is 90%. In series [4], the pest or weed control at 140 g/ha is 70%. Moreover, in series [5], the plant injury at 140 g/ha was 55%.
Turning to `C[Si](C)(C)/C=C/c1c(C(=O)O)nc(Cl)c(F)c1N` [Compound 15, (E)-4-amino-6-chloro-5-fluoro-3-(2-(trimethylsilyl)vinyl)picolinic acid], the melting point fell in the range of 100 to 105 °C. In series [2], the pest or weed control at 140 g/ha stood at 80%. The pest or weed control at 140 g/ha in series [4] was 65%. In series [5], the plant injury at 140 g/ha is 0%.
Regarding `C/C=C\c1c(C(=O)OC)nc(Cl)c(F)c1N` [Compound 4, (Z)-methyl 4-amino-6-chloro-5-fluoro-3-(prop-1-en-1-yl)picolinate], the pest or weed control at 140 g/ha in series [1] was found to be 100%; in series [2] it was 100%; in series [3] it was 40%; in series [4] it was 85%. The plant injury at 140 g/ha in series [5] turned out to be 0%.
On to `C=Cc1c(C(=O)O)nc(Cl)c(Cl)c1N` [Compound 10, 4-amino-5,6-dichloro-3-vinylpicolinic acid], for which the melting point is 190 to 193 °C (dec.). The pest or weed control at 280 g/ha in series [1] was found to be 100%. The pest or weed control at 280 g/ha in series [2] worked out at 100%. Further, the pest or weed control at 280 g/ha in series [4] was 100%. The plant injury at 280 g/ha in series [5] was 20%.
As to `C=C(F)c1c(C(=O)O)nc(Cl)c(F)c1N` [Compound 14, 4-amino-6-chloro-5-fluoro-3-(1-fluorovinyl)picolinic acid], the pest or weed control at 140 g/ha in series [1] worked out at 50%; in series [2] it was 90%; in series [3], 90%; in series [4], 100%. In addition, the plant injury at 140 g/ha in series [5] came to 0%.
Take `COC(=O)c1nc(Cl)c(F)c(N)c1/C=C/[Si](C)(C)C` [Compound 7, (E)-methyl 4-amino-6-chloro-5-fluoro-3-(2-(trimethylsilyl)vinyl)picolinate]: the melting point was 103 to 105 °C. Besides, in series [1], the pest or weed control at 140 g/ha is 90%. In addition, the pest or weed control at 140 g/ha in series [2] is 100%. The pest or weed control at 140 g/ha in series [3] was found to be 50%. Also, the pest or weed control at 140 g/ha in series [4] stood at 55%. Besides, the plant injury at 140 g/ha in series [5] was 0%.
Consider `C=C(F)c1c(C(=O)OC)nc(Cl)c(F)c1N` [Compound 6, methyl 4-amino-6-chloro-5-fluoro-3-(1-fluorovinyl)picolinate], for which the melting point is 98 to 100 °C. Further, in series [1], the pest or weed control at 140 g/ha amounted to 20%. In addition, the pest or weed control at 140 g/ha in series [2] stood at 90%. In addition, the pest or weed control at 140 g/ha in series [3] was determined as 90%. Also, the pest or weed control at 140 g/ha in series [4] came to 75%. In addition, the plant injury at 140 g/ha in series [5] amounted to 0%.
Compound `C/C=C/c1c(C(=O)OC)nc(Cl)c(F)c1N` [Compound 5, (E)-methyl 4-amino-6-chloro-5-fluoro-3-(prop-1-en-1-yl)picolinate] displayed a melting point of 107 to 109 °C. The pest or weed control at 140 g/ha in series [1] is 0%. For the same compound, in series [2], the pest or weed control at 140 g/ha came to 90%. The pest or weed control at 140 g/ha in series [3] turned out to be 20%. Besides, in series [4], the pest or weed control at 140 g/ha was 65%. Further, in series [5], the plant injury at 140 g/ha came to 0%.
Turning to `C=Cc1c(C(=O)O)nc(Cl)c(F)c1N` [Compound 9, 4-amino-6-chloro-5-fluoro-3-vinylpicolinic acid], the melting point fell in the range of 164 to 166 °C. In addition, the pest or weed control at 140 g/ha in series [1] worked out at 100%. For the same compound, the pest or weed control at 140 g/ha in series [2] came out at 100%. In addition, the pest or weed control at 140 g/ha in series [4] worked out at 100%. For the same compound, the plant injury at 140 g/ha in series [5] was determined as 50%.

For orientation: melting point means the temperature of the solid-liquid transition.
